Read-outs that look alike come from different tables or passages of the source.
Legend:
[1] = tested on: Serratia marcescens expressing IMP-1 (CL5741); assay: Antibiotic potentiation activity: synergistic concentration (MITC95) with imipenem, OD600 growth; assay type: cell-based; conditions: for Serratia marcescens expressing IMP-1 (CL5741) MITC95: concentration giving 95% inhibition of bacterial growth; for Serratia marcescens MITC95: Serratia marcescens expressing IMP-1 (CL5741), 95% growth inhibition
Summary of the method: (§1)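 Absorbance after a 22–24 h, 35 °C incubation served as the read-out. Wells held bacteria (saline suspension diluted 1:100 into 1.1× CAMHB), imipenem at 4 μg/ml final or optionally 1 μg/ml, and test compound.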

[2] = tested on: Klebsiella pneumoniae expressing VIM-1 (IHMA599644); assay: as above; assay type: cell-based; conditions: for Klebsiella pneumoniae expressing VIM-1 (IHMA 599644) MITC95: concentration giving 95% inhibition of bacterial growth; for Klebsiella pneumoniae MITC95: Klebsiella pneumoniae expressing VIM-1 (IHMA599644), 95% growth inhibition
Summary of the method: as §1

[3] = tested on: Escherichia coli expressing NDM-1 (CLB30005); assay: as above; assay type: cell-based; conditions: for Escherichia coli expressing NDM-1 (CLB 30005) MITC95: concentration giving 95% inhibition of bacterial growth; for Escherichia coli MITC95: Escherichia coli expressing NDM-1 (CLB30005), 95% growth inhibition
Summary of the method: as §1

[4] = target: NDM-1 (Klebsiella pneumoniae, UniProt C7C422); assay: biochemical; assay type: biochemical
Sequence of NDM-1 (C7C422 whole entry, looked up, species assumed): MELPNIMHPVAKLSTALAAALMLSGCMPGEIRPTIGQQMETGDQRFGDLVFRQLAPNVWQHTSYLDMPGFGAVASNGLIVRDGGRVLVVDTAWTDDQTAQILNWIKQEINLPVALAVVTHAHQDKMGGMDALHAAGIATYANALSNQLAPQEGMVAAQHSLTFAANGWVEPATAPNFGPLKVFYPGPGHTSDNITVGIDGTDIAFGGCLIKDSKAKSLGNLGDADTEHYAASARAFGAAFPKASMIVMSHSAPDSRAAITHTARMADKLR

[5] = target: IMP-1 (Serratia marcescens, UniProt P52699); assay: biochemical; assay type: biochemical
Sequence of IMP-1 (P52699 whole entry, looked up): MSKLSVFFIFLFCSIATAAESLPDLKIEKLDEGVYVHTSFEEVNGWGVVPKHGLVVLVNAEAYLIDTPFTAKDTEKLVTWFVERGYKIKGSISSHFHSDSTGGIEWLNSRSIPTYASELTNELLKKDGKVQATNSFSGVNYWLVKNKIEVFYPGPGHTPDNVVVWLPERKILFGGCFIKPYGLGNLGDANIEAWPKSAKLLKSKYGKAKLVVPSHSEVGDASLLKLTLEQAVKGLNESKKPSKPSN

[6] = target: VIM-1 (Pseudomonas aeruginosa (strain ATCC 15692 / DSM 22644 / CIP 104116 / JCM 14847 / LMG 12228 / 1C / PRS 101 / PAO1), UniProt A0A0F7KYQ8); assay: Enzyme activity: determination of IC50, fluorescence assay with CCF2-FA substrate (VIM-1); assay type: biochemical
[7] = fluorescence assay with CCF2-FA substrate, read-out: NDM-1 IC50
[8] = fluorescence assay with CCF2-FA substrate, read-out: VIM-1 IC50
[9] = NDM-1 enzyme, CCF2-FA fluorescence assay, read-out: NDM-1 IC50
[10] = IMP-1 enzyme, CCF2-FA fluorescence assay, read-out: IMP-1 IC50
[11] = VIM-1 IC50, VIM-1 enzyme, CCF2-FA fluorescence assay
[12] = fluorescence assay with CCF2-FA substrate, read-out: IMP-1 IC50
[13] = VIM-1 IC50, fluorescence assay with CCF2-FA substrate

Row | SMILES | Serratia marcescens expressing IMP-1 (CL5741) MITC95 [1] [µM] | Klebsiella pneumoniae expressing VIM-1 (IHMA 599644) MITC95 [2] [µM] | Escherichia coli expressing NDM-1 (CLB 30005) MITC95 [3] [µM] | IC50 [4, 7] [nM] | IC50 [5] [nM] | IC50 [6, 8] [nM] | Serratia marcescens MITC95 [1] [µM] | Klebsiella pneumoniae MITC95 [2] [µM] | Escherichia coli MITC95 [3] [µM] | IC50 [4, 9] [nM] | IC50 [5, 10] [nM] | IC50 [6, 11] [nM] | IC50 [5, 12] [nM] | IC50 ([6]; VIM-1 enzyme, CCF2-FA fluorescence assay, read-out: VIM-1 IC50) [nM] | IC50 [4] [nM] | IC50 [6, 13] [nM]
1 | CC(C)(C)OC(=O)N1CCN(c2ccc(-c3cccc(S(N)(=O)=O)c3-c3nn[nH]n3)cc2)CC1 [Example 7, tert-butyl 4-[3′-sulfamoyl-2′-(2H-tetrazol-5-yl)biphenyl-4-yl]piperazine-1-carboxylate] | 12.5 | >200 | 6.25 | 3.69 | 29.4 | 486 |  |  |  |  |  |  |  |  |  | 
2 | NS(=O)(=O)c1cccc(-c2ccc(C(O)CO)cc2)c1-c1nn[nH]n1 (stereo not drawn) [Example 321, 4′-(1,2-dihydroxyethyl)-2-(2H-tetrazol-5-yl)-[1,1′-biphenyl]-3-sulfonamide] |  |  |  |  |  |  | 6.25 | 50 | 1.563 | 19.2 | 93.5 | 199 |  |  |  | 
3 | NS(=O)(=O)c1ccnc(-c2ccc(CO)cc2)c1-c1nnn[nH]1 [Example 188, 2-(4-(Hydroxymethyl)phenyl)-3-(1H-tetrazol-5-yl)pyridine-4-sulfonamide] | 37.5 | >200 | 2.344 | 36.5 |  | 4130 |  |  |  |  |  |  | 768 |  |  | 
4 | CS(=O)(=O)c1ccc(-c2cccc(S(N)(=O)=O)c2-c2nn[nH]n2)cn1 [Example 58, 3-[6-(methylsulfonyl)pyridin-3-yl]-2-(2H-tetrazol-5-yl)benzenesulfonamide] | 12.5 | 100 | 0.5859 | 14.5 |  | 190 |  |  |  |  |  |  | 227 |  |  | 
5 | Cc1ccc(-c2ccnc(S(N)(=O)=O)c2-c2nnn[nH]2)cc1 [Example 190, 3-(1H-Tetrazol-5-yl)-4-(p-tolyl)pyridine-2-sulfonamide] | 100 | >200 | 10.42 | 232 |  | 1300 |  |  |  |  |  |  | 3150 |  |  | 
6 | Cn1nnc2ccc(-c3cccc(S(N)(=O)=O)c3-c3nn[nH]n3)cc21 [Example 67, 3-(1-methyl-1H-benzotriazol-6-yl)-2-(2H-tetrazol-5-yl)benzenesulfonamide] | 75 | 62.5 | 2.344 | 2.16 |  | 57 |  |  |  |  |  |  | 911 |  |  | 
7 | CONC(=O)c1ccc(-c2cccc(S(N)(=O)=O)c2-c2nn[nH]n2)cc1 [Example 88, N-methoxy-3′-sulfamoyl-2′-(2H-tetrazol-5-yl)biphenyl-4-carboxamide] | 12.5 | 100 | 1.953 | 2.98 |  | 243 |  |  |  |  |  |  | 87.3 |  |  | 
8 | NC(=O)Cc1ccc(-c2cccc(S(N)(=O)=O)c2-c2nnn[nH]2)cc1 [Example 303, 2-(3′-sulfamoyl-2′-(1H-tetrazol-5-yl)-[1,1′-biphenyl]-4-yl)acetamide] |  |  |  |  |  |  | 2.344 | 18.75 | 0.9766 | 5.06 | 59 |  |  | 44.6 |  | 
9 | N#CC1CC=C(c2cccc(S(N)(=O)=O)c2-c2nn[nH]n2)CC1 (stereo not drawn) [Example 64, 3-(4-cyanocyclohex-1-en-1-yl)-2-(2H-tetrazol-5-yl)benzenesulfonamide] | 50 | 200 | 1.953 | 13.4 |  | 588 |  |  |  |  |  |  | 248 |  |  | 
10 | CC(CO)Oc1ccc(-c2cccc(S(N)(=O)=O)c2-c2nn[nH]n2)cc1 (stereo not drawn) [Example 6, 4′-(2-hydroxy-1-methylethoxy)-2-(2H-tetrazol-5-yl)biphenyl-3-sulfonamide] | 50 | >200 | 1.563 |  | 39.6 | 42.3 |  |  |  |  |  |  |  |  | 1.96 | 
11 | NS(=O)(=O)c1cccc(-c2ccc(C(=O)NC3CC3)cc2)c1-c1nn[nH]n1 [Example 11, N-cyclopropyl-3′-sulfamoyl-2′-(2H-tetrazol-5-yl)biphenyl-4-carboxamide] | 12.5 | >200 | 1.563 | 6.42 |  |  |  |  |  |  |  |  | 109 |  |  | 466
12 | CCOC(=O)N1CCC(c2cccc(S(N)(=O)=O)c2-c2nn[nH]n2)CC1 [Example 173, ethyl 4-(3-sulfamoyl-2-(2H-tetrazol-5-yl)phenyl)piperidine-1-carboxylate] | 6.25 | >200 | 4.688 | 4.39 |  |  |  |  |  |  |  |  | 149 |  |  | 85.6
13 | NS(=O)(=O)c1nccc(-c2ccc3[nH]ncc3c2)c1-c1nn[nH]n1 [Example 199, 4-(1H-indazol-5-yl)-3-(2H-tetrazol-5-yl)pyridine-2 sulfonamide] | 6.25 | 3.125 | 0.3906 | 13 |  | 24.8 |  |  |  |  |  |  | 325 |  |  | 
14 | NS(=O)(=O)c1cccc(-c2cccs2)c1-c1nn[nH]n1 [Example 20, 2-(2H-tetrazol-5-yl)-3-thiophen-2-ylbenzenesulfonamide] | 18.75 | 166.7 | 1.823 | 20.4 |  | 362 |  |  |  |  |  |  | 331 |  |  | 
15 | NS(=O)(=O)c1cccc(-c2cccc(F)n2)c1-c1nn[nH]n1 [Example 36, 3-(6-fluoropyridin-2-yl)-2-(2H-tetrazol-5-yl)benzenesulfonamide] | 50 | 75 | 1.953 | 38.7 |  | 219 |  |  |  |  |  |  | 790 |  |  | 
16 | NS(=O)(=O)c1cccc(-c2ccc3c(c2)C(=O)NC3)c1-c1nn[nH]n1 [Example 53, 3-(3-oxo-2,3-dihydro-1H-isoindol-5-yl)-2-(2H-tetrazol-5-yl)benzenesulfonamide] | 6.25 | 37.5 | 0.5859 | 4.41 |  | 37 |  |  |  |  |  |  | 73.3 |  |  | 
17 | C[C@H](O)c1nc(-c2ccc(-c3cccc(S(N)(=O)=O)c3-c3nn[nH]n3)cc2)no1 [Example 251, (S)-4′-(5-(1-hydroxyethyl)-1,2,4-oxadiazol-3-yl)-2-(2H-tetrazol-5-yl)-[1,1′-biphenyl]-3-sulfonamide] |  |  |  |  |  |  | 6.25 | 200 | 0.7813 | 5.85 | 42.5 | 71.6 |  |  |  | 
